Source: publication PMC5635289, “Differential Effects of Angelicin Analogues on NF-κB Activity and IL-8 Gene Expression in Cystic Fibrosis IB3-1 Cells” (Mediators of Inflammation, 2017)

How the values were obtained:
IB3-1 cells = assay: Cell proliferation assay on IB3-1 cells; type: cell-based; conditions: Homo sapiens, cell number/ml after 48 h of treatment
Experimental: Monolayers of 60% confluent IB3-1 cells were seeded in 24- or 12-well plates in LHC-8 medium in the presence of 5% FBS. After 24 h, TMA derivatives were added at serial dilutions and incubated for further 2-3 days. The effects of compounds (TMA derivatives) on the cell proliferation were analyzed as elsewhere described. A first analysis was performed with serial dilutions to obtain 50 μM, 200 μM, and 800 μM solutions. In order to determine IC50 values, the following concentrations were used 12.5, 25, 50, 100, 200, and 800 μM. In order to prepare the cells for counting, they were washed with PBS 1X and detached with trypsin/EDTA. Cells were suspended in physiological solution and counted with a Z2 Coulter Counter (Coulter Electronics, Hialeah, FL, USA). The cell number/ml was determined as IC50 after 2 days of culture, when untreated cells are in log phase of cell growth.
In order to obtain preliminary information on the biological properties of TMA derivatives, their effects on cell growth were examined on IB3-1 cell line, excellent biological model to study new potential anti-inflammatory molecules. The use of this cell line to study the expression of proinflammatory molecules under a variety of stimuli is well established. Monolayers of 60% confluent IB3-1 cells were seeded in 12-well plate in LHC-8 medium with 5% FBS. After 24 h, compounds were added at different concentrations and the cell number/ml was determined after further 48 h of culture.

IL-8 mRNA = assay: RT-qPCR quantification of IL-8 mRNA in TNF-α-induced IB3-1 cells; type: cell-based, human; conditions: for inhibition at 10 µM / inhibition at 1 µM: Homo sapiens, IB3-1, 24 h, TNF-α-induced IB3-1 cells, RT-qPCR, na = not active at the used concentrations; for inhibition at 10 µM: 10 μM compound; for inhibition at 1 µM: 1 μM compound; for Inhibition of IL-8 expression (range given): IB3-1 cells, low concentrations (1–10 μM), concentration not specified per value
Experimental: Monolayers of 60% confluent IB3-1 cells were seeded in 6- or 12-well plates in LHC-8 medium in the presence of 5% FBS. After 24 h, pure derivatives were added, 5 h before stimulation with TNF-α 80 ng/ml (ORF Genetics, Kopavogur, Iceland), and incubated for a further 24 h. Total RNA was extracted using TRIzol Reagent (Sigma-Aldrich, St. Louis, MO) following the manufacturer's instructions. Reverse transcription (RT) was performed using Reverse Transcription System kit (Promega, Madison, WI): 1 μg of total RNA was reverse transcribed in the presence of 5 mM MgCl2, 1X reverse transcription buffer (10 mM Tris-HCl, 50 mM KCl, and 0.1% Triton X-100), 1 mM each dNTPs, 20 U recombinant Rnasin Ribonuclease Inhibitor, 15 U AMV Reverse Transcriptase, and 0.5 μg oligo(dT)15 primers in a total volume of 20 μl for 10 min at 70°C and 60 min at 42°C. The resulting cDNA was quantified by relative quantitative real-time PCR (real-time qPCR). For real-time qPCR, 1 μl of cDNA was used for each SYBR Green reaction to quantify the relative expression of IL-8. Each 25 μl of total reaction volume contained 1 μl of cDNA, 10 pmol of primers, 1 iQTM SYBR Green Supermix (Bio-Rad Laboratories Inc., Hercules, CA). Real-time PCRs were performed for a total of 40 cycles (denaturation, 95°C for 10 s; annealing, 68°C for 30 s for IL-8, 65°C for 30 s for IL-6; elongation, 72°C for 60 s) using an iCycler IQ5 (Bio-Rad Laboratories Inc., Hercules, CA). Primer sequences were as follows: IL-8 forward: 5′-GTGCAGTTTTGCCAAGGAGT-3′ and IL-8 reverse: 5′-TTATGAATTCTCAGCCCTCTTCAAAAACTTCTC-3′. The relative proportions of each amplified template were determined utilizing the threshold cycle (CT) value for each performed PCR. The DDCt method was used to compare gene expression data. Each sample was quantified in duplicate. Changes in mRNA expression level were calculated following normalization with the GAPDH calibrator gene (housekeeping gene) and expressed as fold change over untreated samples [24]. Duplicates of negative controls (no template cDNA) were also run with every experimental plate to assess specificity and indicate potential contamination.
With the aim to study the effective anti-inflammatory properties of these new psoralen derivatives, we decided to further characterize the TMA derivatives for their potential activities on the expression of IL-8 gene, known to be involved in the lung inflammatory process in CF. […] More specifically, we were first interested in identifying compounds with low antiproliferative activity, but effective in downmodulating inflammatory gene expression without achieving a full suppression of these genes. We therefore employed IB3-1 cystic fibrosis cells, incubated for 5 h with two concentrations (1 μM and 10 μM) of selected compounds, and then treated with TNF-α ([…]). In the IB3-1 cystic fibrosis cellular model, NF-κB-dependent genes, including the gene encoding for the proinflammatory protein IL-8, generally are activated following infection with P. aeruginosa or treatment with TNF-α or IL-1β [26, 28, 31]. This feature is very important in the pathophysiology of CF, since several clinical complications are caused by exacerbation of this inflammatory response. After 1 day of incubation, cellular RNA was isolated for RT-qPCR analysis. All the TMA analogues found to be active in inhibiting NF-κB/DNA interactions were analyzed for their effects on inhibition of TNF-α-induced accumulation of IL-8 mRNA.

NF-κB p50 [1] = molecular target: T1, NF-κB p50 (Homo sapiens, UniProt P19838); assay: EMSA, inhibition of NF-κB/DNA interactions; type: binding; conditions: for Inhibition of NF-κB/DNA complex (MIC): NF-κB p50 and 32P-labeled NF-κB oligonucleotide, MIC = minimal inhibitory concentration, 12.5 μM was the lowest concentration used
T1 construct: This assay was performed using purified NF-κB p50; purchased Promega
T1 sequence (P19838 1-433 limits assumed): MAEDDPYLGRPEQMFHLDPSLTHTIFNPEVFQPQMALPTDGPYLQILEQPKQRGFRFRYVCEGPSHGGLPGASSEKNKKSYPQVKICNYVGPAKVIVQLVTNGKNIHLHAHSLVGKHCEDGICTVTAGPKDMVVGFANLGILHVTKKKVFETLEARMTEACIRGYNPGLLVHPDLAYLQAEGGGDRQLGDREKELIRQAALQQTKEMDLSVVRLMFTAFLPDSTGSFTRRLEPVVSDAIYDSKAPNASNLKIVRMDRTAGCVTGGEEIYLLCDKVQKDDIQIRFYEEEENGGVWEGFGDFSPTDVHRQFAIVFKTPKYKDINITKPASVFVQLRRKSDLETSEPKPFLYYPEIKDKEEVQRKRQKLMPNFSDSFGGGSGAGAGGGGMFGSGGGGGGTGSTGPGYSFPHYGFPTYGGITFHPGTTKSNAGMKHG
Experimental: Electrophoretic mobility shift assays were performed using double-stranded ^32P-labeled oligonucleotides as target DNA. Binding reactions were set up as previously described in binding buffer (10% glycerol, 0.05% NP-40, 10 mM Tris-HCl pH 7.5, 50 mM NaCl, 0.5 mM DTT, and 10 mM MgCl2), in the presence of 0.1 μl/20 μl of NF-κB p50 (50 gsu) (Promega, Madison, WI, USA) and 0.25 ng of labeled oligonucleotide, in a total volume of 20 μl. After 30 min binding at room temperature, samples were electrophoresed at constant voltage (200 V for 30 min) through a low ionic strength (0.25 TBE buffer) (1 TBE/40.089 M Tris-borate, 0.002 M EDTA) on 6% polyacrylamide gels until the tracking dye (bromophenol blue) reached the bottom of a 16 cm slab. Gels were dried and exposed for autoradiography with intensifying screens at […]. In these experiments, DNA/protein complexes migrate through the gel with slower efficiency. In studies on the inhibitors of protein/DNA interactions, addition of the reagents was as follows: (i) nuclear factors, (ii) active principles, (iii) binding buffer, and (iv) labeled oligonucleotides mimicking the binding sites for TF to be modulated. The nucleotide sequence of double-stranded target DNA utilized in these experiments was 5′-CGC TGG GGA CTT TCC ACG G-3′ (sense strand, NF-κB). The synthetic oligonucleotides utilized in this study were purchased from Sigma Genosys (Sigma Genosys, Cambs, UK). To calculate the effective concentrations, three different autoradiograms obtained from different time exposures were scanned and compared to control EMSA performed without addition of angelicin analogues (two independent experiments were performed).
The effects of TMA derivatives on NF-κB- (nuclear factor-kappaB-) mediated induction of proinflammatory genes was verified first in vitro by electrophoretic mobility shift assay (EMSA) with the aim to verify and quantify the possible inhibition of NF-κB/DNA interactions. This assay was performed using purified NF-κB p50 and ^32P-labeled target NF-κB double-stranded oligonucleotide mimicking the NF-κB consensus sequence present within the IL-8 gene promoter.

NF-κB p50 [2] = molecular target: T1, NF-κB p50; design: method as in PMID 21148790; conditions: previous studies; cited from earlier work

Compound	Inhibition of NF-κB/DNA complex (MIC) (NF-κB p50 [1])	Effect on NF-κB/DNA interactions at 100 μM (NF-κB p50 [1]; 100 μM compound)	IC50 (IB3-1 cells) [µM]	inhibition at 10 µM (IL-8 mRNA) [%]	inhibition at 1 µM (IL-8 mRNA) [%]	Inhibition of IL-8 expression (range given) (IL-8 mRNA)	Concentration inhibiting NF-κB/DNA interactions in EMSA (NF-κB p50 [2]) [µM]
Cc1cc2c(o1)c1cc(C)oc1c1c(C)cc(=O)oc21 [Compound 30]	12.5 to 25 µM		> 800		10		
Cc1cc2c(C)cc(=O)oc2c2c1OCC=C2 [Compound 35]	25 to 50 µM		137	37	56		
C=CCc1c(O)c(C)cc2c(CO)cc(=O)oc12 [Compound 38]	25 µM		506	81	36	52–83%	
Cc1cc(=O)oc2c1cc(C)c1occ(C)c12 [TMA, 4,6,4′-trimethylangelicin, reference compound]	higher than 20 μM	able to suppress NF-κB/DNA interactions	185 ± 30				100

Continued, in another order:

Inhibition of NF-κB/DNA complex (MIC) (NF-κB p50 [1])	Effect on NF-κB/DNA interactions at 100 μM (NF-κB p50 [1]; 100 μM compound)	Compound	IC50 (IB3-1 cells) [µM]	inhibition at 10 µM (IL-8 mRNA) [%]	inhibition at 1 µM (IL-8 mRNA) [%]	Inhibition of IL-8 expression (range given) (IL-8 mRNA)	Concentration inhibiting NF-κB/DNA interactions in EMSA (NF-κB p50 [2]) [µM]
<12.5 (^∗) μM		Cc1coc2c1c1occ(C)c1c1oc(=O)cc(C)c21 [Compound 29]	> 800	12			
<12.5 (^∗) μM		Cc1coc2c1c(C)cc1oc(=O)cc(C)c12 [Compound 32]	> 800	52	73		
12.5 to 25 µM		Cc1cc2c(C)cc3oc(=O)cc(C)c3c2o1 [Compound 33]	> 800	67	66	52–83%	
<12.5 (^∗) μM		Cc1oc2c(c(C)cc3oc(=O)cc(C)c32)c1C [Compound 34]	> 800	47	68		
12.5 to 25 µM		Cc1cc2oc(=O)cc(C)c2c2c1C=CCO2 [Compound 36]	> 800	74	77		
